Test results taken from US20060045864A1, “Preventing marine biofouling by inhibiting adhesive release from barnacles” (priority 2004, published 2006).

Columns and labels:
barnacle cypris larvae = test: settling and metamorphosis of barnacle cypris larvae in Petri dish with filtered seawater; type: in vivo, Balanus improvisus; settings: 20 cypris larvae in 5 ml filtered seawater; for inhibition of settling rate of barnacle cypris larvae, compared between substances and control: 1 μM and 10 μM, accumulative settling frequency over 10 days (FIG. 1)
Experimental: (§1) All the below described experiments are on the species Balanus improvisus.
In a Petri dish containing 5 ml of filtered seawater, 20 cypris larvae and a defined concentration of the different pharmacological agents. […] 20 barnacle cypris larvae were added into a Petri dish containing 5 ml filtered seawater and different concentration of haloperidole and SCH 23990. […] Instead 1 μM of SCH 23390 inhibits the settling rate almost completely. Typically, 0.01-1.0% of the dopamine antagonist effects the desired result, typically dissolved in ethanol and mixed with commercially available paints, such as VC 17 New Technology (solid paint) International Coatings (Akzo Nobel bv, Arnhem, NL), SPF (Self polishing, SPC) (Loutrec AB, Lidingo, Sweden), TF (combined solid/ablative) (Loutrec AB), Fabi Eco (ablative paint) International Coatings (Akzo Nobel bv).

[1] = system: release of barnacle adhesive; test: release of barnacle adhesive; design: species or system Balanus improvisus; settings: in vivo
From the text: as §1
The release of the adhesive is governed by a G-protein coupled receptor and it is possible to stimulate release of the adhesive glands by adding dopamine. According to the same principle, it is possible to block the release of the adhesive proteins by using a dopamine antagonist that block the action of dopamine. […] The invention herein includes use of SCH23390, and salts and derivatives thereof, as well as other D1 or D5 receptor antagonists such as […], SCH 39166, SCH 233388 and the like or antagonists against other receptors with the same function.

Row | Structure (SMILES) | inhibition of settling rate of barnacle cypris larvae, compared between substances and control (barnacle cypris larvae) | effect on settlement rate of barnacle cypris larvae (barnacle cypris larvae; 1 μM, accumulative settling over 10 days (FIG. 1)) | inhibition of the release of barnacle adhesive [1]
1 | CN1CCc2cc(Cl)c(O)cc2[C@@H](c2ccccc2)C1 [SCH 23390, (R)-(+)-7-Chloro-8-hydroxy-3-methyl-1-phenyl-2,3,4,5-tetrahydro-1H-3-benzazepine] | effectively inhibits the settling rate | almost complete reducing effect | can inhibit the release of barnacle adhesive
2 | O=C(CCCN1CCC(O)(c2ccc(Cl)cc2)CC1)c1ccc(F)cc1 [haloperidol] | less effective | – | –
